Article PMC11173846, “Comparison of HPLC, HPTLC, and In Silico Lipophilicity Parameters Determined for 5-Heterocyclic 2-(2,4-Dihydroxyphenyl)-1,3,4-thiadiazoles” (Molecules, 2024)

Assay: Chromatographic lipophilicity overall (HPTLC and HPLC systems), structure-retention comparison and PCA
Type: physicochemical
Conditions: for lipophilicity by heterocyclic substituent (chromatographic parameters, in words): Tables S1–S7, all chromatographic systems; for lipophilicity by first principal component score (average value of lipophilicity, in words): PCA of experimental and computational data, PC1
Experimental: Chromatographic studies were carried out using both HPTLC and HPLC methods under the isocratic conditions. In all systems, there were stated linear relationships between the RM (HPTLC) or log kw (HPLC) values and the organic modifier content (ϕ) in the mobile phase. This is described by the Soczewinski–Wachtmeister equation [31] as follows:RM = RMw + bϕ(1) log k = log kw + bϕ(2) where ϕ expresses the volume fraction of the organic solvent in the mobile phase; RMw (log kw) corresponds to 0% of the organic solvent content in the mobile phase; b represents the slope of a regression line.
The retention behavior of the compounds was analyzed by HPTLC using the octyl C8 and octadecyl C18 stationary phases and MeOH, ACN, acetone, and dioxane as organic modifiers (Supplementary Materials Tables S1–S4). The chromatographic evaluation of using the HPLC methods was made in the systems, with C8/MeOH, C8/ACN, and C18/ACN analogous to HPTLC (Tables S5 and S7). The measurements using the IAM and Chol stationary phases and the buffered mobile phases (pH = 7.4) were additionally used (Supplementary Materials Tables S5–S7).
The lipophilicity parameters for the Et derivatives were usually higher than those for chlorine ones (1 and 2; 7 and 8). This was an expected effect, taking into account the hydrophobicity parameter π (Hansch–Fujita π constant) for these substituents. Deviations from this order were sometimes observed. […] (Supplementary Materials Tables S1–S7).
To investigate the similarity between the investigated compounds, the obtained experimental and computational data were analyzed using scaled principal component analysis.
The most important conclusion from the PCA analysis is that all coefficients, both computational and experimental ones, were highly redundant. In total, 85% of the information was common for them and could be collected together to form the first principal component. The score could be interpreted as an average value of lipophilicity.

SMILES | lipophilicity by heterocyclic substituent (chromatographic parameters, in words) | lipophilicity by first principal component score (average value of lipophilicity, in words)
Oc1cc(O)c(-c2nnc(-c3ccco3)s2)cc1Cl [Compound 1] | low lipophilicity | –
CCc1cc(-c2nnc(-c3cc4cc(Br)ccc4n3C)s2)c(O)cc1O [Compound 5] | – | highest lipophilicity
Oc1ccc(-c2nnc(-c3ccc4nonc4c3)s2)c(O)c1 [Compound 6] | low lipophilicity | –
Oc1ccc(-c2nnc(-c3ccn4c(Br)cnc4c3)s2)c(O)c1 [Compound 9] | – | lowest lipophilicity
Oc1ccc(-c2nnc(-c3ccc(N4CCOCC4)nc3)s2)c(O)c1 [Compound 13] | lowest lipophilicity | –
